From patent US6444194B1, “Indium photosensitizers for PDT” (Miravant Pharmaceuticals, Inc., priority 1997, dated 2002)

Assays:
[1] = Photophysical measurements of photosensitizers (λmax, ε, φ f); type: physicochemical; design: λmax: unit not given here; settings: for ε: at λmax; for λmax: band I absorption maximum
[2] = system: Chinese hamster lung fibroblasts (V-79); assay: DC(50)(light): colony-formation phototoxicity after laser irradiation; type: cell-based; settings: V-79 cells; sensitizer incubation 16-24 hours; 12.5 mW/cm^2, total light dose 1.25 J/cm^2; concentration for lethal damage to 50% of cells
Experimental: (§1) For the Biological Evaluation, Chinese hamster lung fibroblasts (V-79) obtained from the American Tissue Culture Collection were grown in D-MEM supplemented with 10% fetal calf serum at 37° C., 5% CO2, and 95% humidity. These cells were used to evaluate the sensitizers for dark and light toxicity, and cellular uptake. Medium was replaced with 5% fetal calf serum supplemented medium during sensitizer incubations.
In the first phase, the combination of intracellular and extracellular concentration of photosensitizer required for lethal damage to 50% of the cells in culture (DC(50)) on light exposure was determined by plating cells at a density of 100 cells/cm^2 and incubating for 1-3 hours to allow attachment of the cells. Cells were incubated with various concentrations of sensitizer ([C]=0.01-1.0 μM) delivered in non-toxic concentrations of DMSO/5% dextrose solution or in some cases in egg yolk phosphatidase (EYP) for 16-24 hours. The cells were then irradiated with laser light using a tunable Lexel argon pumped dye laser at the band I absorption of the photosensitizer. Total power density was adjusted to 12.5 mW/cm^2 and a total light dose of 1.25 J/cm^2 was applied. After treatment, cells were washed with HBSS, refed with 10% FBS supplemented DMEM with phenol red and incubated for 3-5 days to allow colony formation. Cells were fixed in methanol, stained with Giemsa, and colonies were counted. Plating efficiency was determined using a control colony and the mean percent survival fraction plotted against the sensitizer concentration and the DC50 established (Table 5).

[3] = system: BA mammary carcinoma; assay: In vivo assay of photosensitizers on tumors (PDT tumor cure); design: species or system C3H/HeJ mice; settings: light dose 200 J/cm^2, n = 10
Experimental: Female C3H/HeJ mice (8-9 weeks old) were subjected to trochar implantation of BA mammary carcinoma on the hind leg of the animals. Animals having tumors ca 5 mm in diameter were entered into the in vivo screen. For each new photosensitizer, a group of at least three mice were used to ascertain a drug dose that caused a response as described in table 3 when treated with the appropriate wavelength of light. Generally in this series, animals were injected with 1 μ mole of sensitizer/Kg of body weight, formulated in egg yolk phosphatidate (EYP), via the tail vein. At a defined time period later the animals were irradiated with light from a laser source tuned to the wavelength of activation of the sensitizer. The power density of the laser was set at 75 mW/cm^2 with a total light dose of 200 J/cm^2.

[4] = system: V-79 cells; assay: Cellular uptake of photosensitizer; type: in vitro ADME, Chinese hamster; settings: 10 μM photosensitizer in EYP
Experimental: as §1
Several photosensitizers were screened by a standard cellular uptake protocol. A 10 μM stock solution of photosensitizer in EYP was prepared by dilution of the photosensitizer stock (1 mM) using 5% dextrose solution. […] Following incubation the cells were washed with PBS (1 mL) three times, then washed with HBSS (1 mL) and detached using 100 μL of trypsin. Individual wells containing cells were lysed by three freeze thaws.
Spiking experiments were performed to confirm that the sensitizer could be adequately recovered using standard procedures. The sensitizer was then extracted from the cell debris with DMSO, centrifuged and the supernatant examined for fluorescence. Sensitizer concentration was determined by comparison to a standard curve. Results are expressed in ug/ug protein. Untreated monolayers are used to determine cell count. Treated cells of each time point were used to determine the protein concentration using the BCA assay. Results shown are the mean of the three experiments for each timepoint.

[5] = drug dose 3 μm/Kg via tail vein in EYP, treatment 24 post injection
[6] = drug dose 0.1 μm/Kg via tail vein in EYP, treatment 24 post injection
[7] = drug dose 2.5 μm/Kg via tail vein in EYP, treatment 24 post injection
[8] = drug dose 0.05 μm/Kg via tail vein in EYP, treatment 24 post injection

Row | Compound | ε [1] | λmax [1] | IC50 [2] [nM] | φ f [1] | also measured
1 | CCC1=C(CC)C2=NC1=Cc1c(CC)c(CC)c3[n]1[In]([Cl])[n]1c(c(CC)c(CC)c1=c1cc(S(=O)(=O)NCC(=O)O)cc4c1=NC(=C3)C4(CC)CC)=C2 [Compound 20] | 52,000 M^−1 cm^−1 | 684 | 40 | – | –
2 | CCC1=C(CC)C2=NC1=Cc1c(CC)c(CC)c3[n]1[Zn][n]1c(c(CC)c(CC)c1=c1cccc4c1=NC(=C3)C4(CC)CC)=C2 [Compound 4] | 57,000 M^−1 cm^−1 | 678 | > 1000 | 0.150 | % Cure (30 days) [3, 5]: 0%
3 | CCC1=C(CC)c2cc3[nH]c(c(CC)c3CC)c3cccc4c3nc(cc3[nH]c(cc1n2)c(CC)c3CC)C4(CC)CC [Compound 1, Octaethylbenzochlorin] | 35,000 M^−1 cm^−1 | 658 | > 1000 | 0.347 | % Cure (30 days) [3, 5]: 60%
4 | CCC1=C(CC)C2=NC1=Cc1c(CC)c(CC)c3[n]1[In]([Cl])[n]1c(c(CC)c(CC)c1=c1cccc4c1=NC(=C3)C4(CC)CC)=C2 [Compound 9, In Octaethylbenzochlorin] | 53,000 M^−1 cm^−1 | 691 | 100 | 0.028 | % Cure (30 days) [3, 6]: 70%; Cellular uptake (24 hrs) [4]: 0.336 ρmole/μg protein
5 | CCC1=C(CC)c2cc3[nH]c(c(CC)c3CC)c3cc(C)cc4c3nc(cc3[nH]c(cc1n2)c(CC)c3CC)C4(CC)CC [Compound 3] | 35,000 M^−1 cm^−1 | 658 | – | 0.35 | % Cure (30 days) [3, 7]: 60%
6 | CCC1=C(CC)C2=NC1=Cc1c(CC)c(CC)c3[n]1[In]([Cl])[n]1c(c(CC)c(CC)c1=c1cc(S(=O)(=O)NCCN(C)C)cc4c1=NC(=C3)C4(CC)CC)=C2 [Compound 15] | 52,000 M^−1 cm^−1 | 684 | 50 | ˜0.03 | % Cure (30 days) [3, 8]: 100%
7 | CCC1=C(CC)C2=NC1=Cc1c(CC)c(CC)c3[n]1[In]([Cl])[n]1c(c(CC)c(CC)c1=c1cc(S(=O)(=O)NCCCCCO)cc4c1=NC(=C3)C4(CC)CC)=C2 [Compound 13] | 52,000 M^−1 cm^−1 | 684 | 40 | ˜0.03 | % Cure (30 days) ([3]; drug dose 0.075 μm/Kg via tail vein in EYP, treatment 24 post injection): 80%
8 | Indium 2-desvinyl-2-formyl pyropheophorbide [Compound 27] | – | 683 | 50 | – | % Cure (30 days) ([3]; drug dose 0.1 μm/Kg via tail vein in EYP, treatment 8 post injection): 90%
9 | CCC1=C(CC)C2=NC1=Cc1c(CC)c(CC)c3[n]1[In]([Cl])[n]1c(c(CC)c(CC)c1=c1cc(S(=O)(=O)NCCCS)cc4c1=NC(=C3)C4(CC)CC)=C2 [Compound 18] | 52,000 M^−1 cm^−1 | 684 | 40 | 0.03 | –
10 | CCC1=C(CC)C2=NC1=Cc1c(CC)c(CC)c3[n]1[In]([Cl])[n]1c(c(CC)c(CC)c1=c1cc(S(=O)(=O)N(CCO)CCO)cc4c1=NC(=C3)C4(CC)CC)=C2 [Compound 12] | 52,000 M^−1 cm^−1 | 684 | 40 | ˜0.03 | % Cure (30 days) [3, 8]: 90%
11 | tin octaethylbenzochlorin [Compound 6] | 54,000 M^−1 cm^−1 | 691 | 80 to 160 | 0.044 | % Cure (30 days) ([3]; drug dose 0.75 μm/Kg via tail vein in EYP, treatment 24 post injection): 80%; Cellular uptake (24 hrs) [4]: 0.501 ρmole/μg protein
12 | C=Cc1c(C)c2cc3nc(c4c5[nH]c(cc6nc(cc1[nH]2)C(C)=C6CC)c(C)c5C(=O)C4)[C@@H](CCC(=O)OC)[C@@H]3C [Compound 22] | – | – | – | – | % Cure (30 days) ([3]; drug dose 10.6 μm/Kg via tail vein in EYP, treatment 3 post injection): 50%
13 | CCC1=C(CC)C2=NC1=Cc1c(CC)c(CC)c3[n]1[In]([Cl])[n]1c(c(CC)c(CC)c1=c1cc(S(=O)(=O)NCCCO)cc4c1=NC(=C3)C4(CC)CC)=C2 [Compound 10, InOEBCSO2NH(CH2)3OH] | 52,000 M^−1 cm^−1 | 684 | 100 to 125 | 0.027 | % Cure (30 days) [3, 6]: 100%
14 | C=Cc1c(C)c2[n]3c1=CC1=NC(=Cc4c(C)c5c([n]4[In]3[Cl])C(=C3N=C(C=2)[C@@H](C)[C@@H]3CCC(=O)OC)CC5=O)C(CC)=C1C [Compound 24] | – | – | – | – | % Cure (30 days) ([3]; drug dose 0.2 μm/Kg via tail vein in EYP, treatment 6 or 8 post injection): 80%
15 | CCC1=C(C)C2=NC1=Cc1c(C)c3c4[n]1[Pd][n]1c(c(C)c(C(C)=O)c1=C2)=CC1=NC(=C4CC3=O)[C@@H](CCC(=O)OC)[C@@H]1C [Compound 28] | – | 653 | 50 | – | % Cure (30 days) ([3]; drug dose 0.2 μm/Kg via tail vein in EYP, treatment 8 post injection): 80%
16 | CCC1=C(CC)c2cc3[nH]c(c(CC)c3CC)c3cc(S(=O)(=O)NCCCO)cc4c3nc(cc3[nH]c(cc1n2)c(CC)c3CC)C4(CC)CC [Compound 2, OEBCSO2NH(CH2)3OH] | 34,000 M^−1 cm^−1 | 665 | 500 to 1000 | 0.230 | % Cure (30 days) [3, 7]: 80%; Cellular uptake (24 hrs) [4]: 0.129 ρmole/μg protein
17 | CCC1=C(CC)C2=NC1=Cc1c(CC)c(CC)c3[n]1[In]([Cl])[n]1c(c(CC)c(CC)c1=c1cc(S(=O)(=O)NC(CO)(CO)CO)cc4c1=NC(=C3)C4(CC)CC)=C2 [Compound 19, InOEBCSO2NHC(CH2OH)3] | 52,000 M^−1 cm^−1 | 684 | 40 | 0.03 | –
18 | CCC1=C(CC)C2=NC1=Cc1c(CC)c(CC)c3[n]1[In]([Cl])[n]1c(c(CC)c(CC)c1=c1cc(S(=O)(=O)NCCOCCOCCOC)cc4c1=NC(=C3)C4(CC)CC)=C2 [Compound 16] | 52,000 M^−1 cm^−1 | 684 | 40 | ˜0.03 | % Cure (30 days) [3, 8]: 80%
19 | CCC1=C(CC)C2=NC1=Cc1c(CC)c(CC)c3[n]1[In]([Cl])[n]1c(c(CC)c(CC)c1=c1cc(C)cc4c1=NC(=C3)C4(CC)CC)=C2 [Compound 11] | 54,000 M^−1 cm^−1 | 687 | – | 0.034 | % Cure (30 days) ([3]; drug dose 0.15 μm/Kg via tail vein in EYP, treatment 24 post injection): 90%
20 | CCC1=C(CC)C2=NC1=Cc1c(CC)c(CC)c3[n]1[In]([Cl])[n]1c(c(CC)c(CC)c1=c1cc(S(=O)(=O)NCCCCC(N)C(=O)O)cc4c1=NC(=C3)C4(CC)CC)=C2 (centres unmarked) [Compound 21, InOEBCSO2NH (CH2)4CH(NH2)CO2H] | 52,000 M^−1 cm^−1 | 684 | 40 | 0.03 | –
21 | C=Cc1c(C)c2[n]3c1=CC1=NC(=Cc4c(C)c5c([n]4[Sn]3([Cl])[Cl])C(=C3N=C(C=2)[C@@H](C)[C@@H]3CCC(=O)OC)CC5=O)C(CC)=C1C [Compound 23] | – | – | > 1000 | – | % Cure (30 days) ([3]; drug dose 2.0 μm/Kg via tail vein in EYP, treatment 24 or 6 post injection): 0%
22 | CCC1=C(C)C2=NC1=Cc1c(C)c3c4[n]1[In]([Cl])[n]1c(c(C)c(C(C)=O)c1=C2)=CC1=NC(=C4CC3=O)[C@@H](CCC(=O)OC)[C@@H]1C [Compound 26, Indium 2-desvinyl-2-acetyl pyropheophorbide] | – | 672 | 60 | – | % Cure (30 days) ([3]; drug dose 0.125 μm/Kg via tail vein in EYP, treatment 8 post injection): 90%
